Assay results reported in paper PMC9913023, “Repositioning linifanib as a potent anti-necroptosis agent for sepsis” (Cell Death Discovery, 2023).

Target: T1, RIPK1 (receptor-interacting serine/threonine-protein kinase 1) (Homo sapiens, UniProt Q13546)
T1 sequence (Q13546 1-671): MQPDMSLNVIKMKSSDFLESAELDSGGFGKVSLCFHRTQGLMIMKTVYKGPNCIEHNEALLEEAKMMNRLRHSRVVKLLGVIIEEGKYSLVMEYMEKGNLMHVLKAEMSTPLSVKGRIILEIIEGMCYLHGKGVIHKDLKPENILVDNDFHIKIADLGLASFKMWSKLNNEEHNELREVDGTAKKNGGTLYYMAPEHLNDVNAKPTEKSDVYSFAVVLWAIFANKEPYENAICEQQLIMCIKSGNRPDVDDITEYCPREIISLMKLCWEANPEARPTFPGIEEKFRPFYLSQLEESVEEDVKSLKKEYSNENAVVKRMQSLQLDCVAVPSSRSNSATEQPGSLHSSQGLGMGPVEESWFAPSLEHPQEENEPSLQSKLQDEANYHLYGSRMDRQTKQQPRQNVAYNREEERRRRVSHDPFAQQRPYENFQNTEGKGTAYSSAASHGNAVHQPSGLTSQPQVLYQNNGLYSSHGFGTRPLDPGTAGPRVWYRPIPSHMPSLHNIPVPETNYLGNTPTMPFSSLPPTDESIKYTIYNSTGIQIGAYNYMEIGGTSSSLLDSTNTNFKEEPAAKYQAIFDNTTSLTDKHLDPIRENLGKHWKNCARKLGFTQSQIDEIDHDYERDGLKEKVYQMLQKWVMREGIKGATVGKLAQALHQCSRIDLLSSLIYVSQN
Experiment: ADP-Glo kinase assay with recombinant human RIPK1 ([…])
Format: biochemical

IC50: 0.67 µM
Compound: Cc1ccc(F)c(NC(=O)Nc2ccc(-c3cccc4[nH]nc(N)c34)cc2)c1 [linifanib]
